# Laboratory results as given in patent US10231967B2, “Compounds and their use as BACE inhibitors” (ASTRAZENECA AB, priority 2010, dated 2019).
# Test system: sAPPβ release in SH-SY5Y cells
# Test: sAPPβ release assay
# Format: cell-based
# Conditions: Homo sapiens, SH-SY5Y, 17 h, compounds incubated 17 h, MSD detection
# Procedure, shortened: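 SH-SY5Y cells were exposed to compounds at 1% DMSO final for 17 h at 37 °C. Secreted sAPPβ in 20 μL of medium was quantified by MSD electrochemiluminescence immunoassay with 1 nM detection antibody. Cell plates were then used in an ATP assay for cytotoxicity.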
row,SMILES,IC50
1,"CO[C@H]1CC[C@]2(CC1)Cc1ccc(-c3cnc4[nH]cc(C)c4c3)cc1C21N=C(C)C(N)=N1 (stereo partly shown) [Example 116, (1r,4r)-4-Methoxy-5″-methyl-6′-(3-methyl-1H-pyrrolo[2,3-b]pyridin-5-yl)-3′H-dispiro[cyclohexane-1,2′-indene-1′,2″-imidazol]-4″-amine]",12 nM
2,"[2H]C([2H])([2H])O[C@H]1CC[C@]2(CC1)Cc1ccc(Br)cc1C21N=C(C)C(N)=N1 (stereo partly shown) [Example 117, (1r,4r)-6′-Bromo-5″-methyl-4-[(^2H3)methyloxy]-3′H-dispiro[cyclohexane-1,2′-indene-1′,2″-imidazol]-4″-amine]",47 nM
3,"[2H]C([2H])([2H])O[C@H]1CC[C@]2(CC1)Cc1ccc(-c3cc(F)cc(C#N)c3)cc1C21N=C(C)C(N)=N1 (stereo partly shown) [Example 118, 3-{(1r,4r)-4″-Amino-5″-methyl-4-[(^2H3)methyloxy]-3′H-dispiro[cyclohexane-1,2′-indene-1′,2″-imidazol]-6′-yl}-5-fluorobenzonitrile]",2.8 nM
4,"[2H]C([2H])([2H])O[C@H]1CC[C@]2(CC1)Cc1ccc(-c3cncc(Cl)c3)cc1C21N=C(C)C(N)=N1 (stereo partly shown) [Example 119, (1r,4r)-6′-(5-Chloropyridin-3-yl)-5′-methyl-4-[(^2H3)methyloxy]-3′H-dispiro[cyclohexane-1,2′-indene-1′,2″-imidazol]-4″-amine]",0.97 nM
5,"CO[C@H]1CC[C@]2(CC1)Cc1ccc(-c3ccc4[nH]cc(C)c4c3)cc1C21N=C(C)C(N)=N1 (stereo partly shown) [Example 121, (1r,4r)-4-Methoxy-5″-methyl-6′-(3-methyl-1H-indol-5-yl)-3′H-dispiro[cyclohexane-1,2′-indene-1′,2″-imidazol]-4″-amine]",10 nM
6,"CC#Cc1cccc(-c2ccc3c(c2)C2(N=C(C)C(N)=N2)[C@]2(CC[C@H](OC)CC2)C3)c1Cl (stereo partly shown) [Example 123, (1r,4r)-6′-[2-Chloro-3-(prop-1-yn-1-yl)phenyl]-4-methoxy-5″-methyl-3′H-dispiro[cyclohexane-1,2′-indene-1′,2″-imidazol]-4″-amine]",135 nM
7,"[2H]C([2H])([2H])O[C@H]1CC[C@]2(CC1)Cc1ccc(-c3cc(Cl)cc(C#N)c3)cc1C21N=C(C)C(N)=N1 (stereo partly shown) [Example 125, 3-{(1r,4r)-4″-Amino-5″-methyl-4-[(^2H3)methyloxy]-3′H-dispiro[cyclohexane-1,2′-indene-1′,2″-imidazol]-6′-yl}-5-chlorobenzonitrile]",0.5 nM
8,"CO[C@H]1CC[C@]2(CC1)Cc1ccc(OCC3CCC3)cc1C21N=C(C)C(N)=N1 (stereo partly shown) [Example 126, (1r,4r)-6′-(Cyclobutylmethoxy)-4-methoxy-5″-methyl-3′H-dispiro[cyclohexane-1,2′-indene-1′,2″-imidazol]-4″-amine]",1.4 nM
9,CC1=NC2(N=C1N)c1cc(-c3cncc(Cl)c3)ccc1CC21CCC(C(F)F)CC1 (stereo not shown) [Example 129],417 nM
10,"CCO[C@H]1CC[C@]2(CC1)Cc1ccc(Br)cc1C21N=C(C)C(N)=N1 (stereo partly shown) [Example 130, (1r,4r)-6′-Bromo-4-ethoxy-5″-methyl-3′H-dispiro[cyclohexane-1,2′-indene-1′,2″-imidazol]-4″-amine]",148 nM
11,CCO[C@H]1CC[C@]2(CC1)Cc1ccc(-c3cncc(C(F)(F)F)c3)cc1C21N=C(C)C(N)=N1 (stereo partly shown) [Example 131],24 nM
12,"CCO[C@H]1CC[C@]2(CC1)Cc1ccc(-c3cc(F)cc(C#N)c3)cc1C21N=C(C)C(N)=N1 (stereo partly shown) [Example 132, 3-[(1r,4r)-4″-amino-4-ethoxy-5″-methyl-3′H-dispiro[cyclohexane-1,2′-indene-1′,2″-imidazol]-6′-yl]-5-fluorobenzonitrile]",17 nM
13,"CC#Cc1cncc(-c2ccc3c(c2)C2(N=C(C)C(N)=N2)[C@]2(CC[C@H](OCC)CC2)C3)c1 (stereo partly shown) [Example 135, (1r,4r)-4-Ethoxy-5″-methyl-6′-[5-(prop-1-yn-1-yl)pyridin-3-yl]-3′H-dispiro[cyclohexane-1,2′-indene-1′,2″-imidazol]-4″-amine]",0.85 nM

# Same assay, conditions: Homo sapiens, compounds incubated 17 h, MSD detection
row,SMILES,IC50
1,"CC1=NC2(N=C1N)c1cc(-c3cc(F)cc(C#N)c3)ccc1CC21CCC(=O)CC1 (stereo not shown) [Example 115, 3-(4″-Amino-5″-methyl-4-oxodispiro[cyclohexane-1,2′-[1H]indene-1′(3′H),2″-[2H]imidazol]-6′-yl)-5-fluorobenzonitrile]",293 nM
2,"CO[C@H]1CC[C@]2(CC1)Cc1ccc(-c3cncc(C(F)F)c3)cc1C21N=C(C)C(N)=N1 (stereo partly shown) [Example 120, (1r,4r)-6′-[5-(Difluoromethyl)pyridin-3-yl]-4-methoxy-5″-methyl-3′H-dispiro[cyclohexane-1,2′-indene-1′,2″-imidazol]-4″-amine]",3.1 nM
3,"CC1=NC2(N=C1N)c1cc(Br)ccc1CC21CCC(C(F)(F)F)CC1 (stereo not shown) [Example 124, 6′-Bromo-5″-methyl-4-(trifluoromethyl)-3′H-dispiro[cyclohexane-1,2′-indene-1′,2″-imidazol]-4″-amine]",6950 nM
4,"COCc1cc(-c2ccc3c(c2)C2(N=C(C)C(N)=N2)[C@]2(CC[C@H](OC)CC2)C3)cc(C#N)c1F (stereo partly shown) [Example 127, 5-[(1r,4r)-4″-Amino-4-methoxy-5″-methyl-3′H-dispiro[cyclohexane-1,2′-indene-1′,2″-imidazol]-6′-yl]-2-fluoro-3-(methoxymethyl)benzonitrile]",5.1 nM
5,"CCO[C@H]1CC[C@]2(CC1)Cc1ccc(-c3cncc(Cl)c3)cc1C21N=C(C)C(N)=N1 (stereo partly shown) [Example 133, (1r,4r)-6′-(5-chloropyridin-3-yl)-4-ethoxy-5″-methyl-3′H-dispiro[cyclohexane-1,2′-indene-1′,2″-imidazol]-4″-amine]",5.5 nM
6,"CCO[C@H]1CC[C@]2(CC1)Cc1ccc(-c3cc(C#N)cc(C(F)F)c3)cc1C21N=C(C)C(N)=N1 (stereo partly shown) [Example 134, 3-[(1r,4r)-4″-Amino-4-ethoxy-5″-methyl-3′H-dispiro[cyclohexane-1,2′-indene-1′,2″-imidazol]-6′-yl]-5-(difluoromethyl)benzonitrile]",7.7 nM
